Several values for one entry are separate records, joined by “and”; a condition that tells them apart may be missing. Equal entries are not always repeated. Where two headings read alike, the source gives them in different places.
System: SkBr3-TxR cells
Assay: SRB cell viability assay, lapatinib-resistant SkBr3-TxR cells
Type: cell-based, human
Details: for viability at 0.001 µM / viability at 0.02 µM / viability at 0.067 µM / viability at 0.2 µM / viability at 0.67 µM / viability at 2 µM / viability at 6.7 µM / viability at 20 µM / IC50: Homo sapiens; for viability at 0.067 µM: Lapatinib 0.067 μM
Source text: FIG. 13 summarizes the data of Tables 32-33 in a graphical format.
FIG. 14 summarizes the data of Tables 34 and 35 in a graphical format.

In the case of CS(=O)(=O)CCNCc1ccc(-c2ccc3ncnc(Nc4ccc(OCc5cccc(F)c5)c(Cl)c4)c3c2)o1 [lapatinib], the viability at 0.001 µM (Lapatinib 0.001 μM, 72 h, no LGT-E pre-treatment (control to Table 34)) is reported as 100%, the viability at 0.001 µM (Lapatinib 0.001 μM, 72 h, pre-treated with […] LGT-E) is reported as 100% and the viability at 0.001 µM (Lapatinib 0.001 μM, no chemosensitizing pre-treatment (Table 33)) is reported as 100%. It also gave a viability at 0.02 µM (Lapatinib 0.02 μM, 72 h, no LGT-E pre-treatment (control to Table 34)) of 99.2%, a viability at 0.02 µM (Lapatinib 0.02 μM, 72 h, pre-treated with […] LGT-E) of 97.2% and a viability at 0.02 µM (Lapatinib 0.02 μM, no chemosensitizing pre-treatment (Table 33)) of 103%. For the same molecule, the viability at 0.067 µM (72 h, no LGT-E pre-treatment (control to Table 34)) was 96.2%, the viability at 0.067 µM (72 h, pre-treated with […] LGT-E) was 92.6% and the viability at 0.067 µM (no chemosensitizing pre-treatment (Table 33)) was 102%. For the same molecule, the viability at 0.2 µM (Lapatinib 0.2 μM, 72 h, no LGT-E pre-treatment (control to Table 34)) was 93.1%, the viability at 0.2 µM (Lapatinib 0.2 μM, 72 h, pre-treated with […] LGT-E) was 90.3% and the viability at 0.2 µM (Lapatinib 0.2 μM, no chemosensitizing pre-treatment (Table 33)) was 97.2%. The viability at 0.67 µM (Lapatinib 0.67 μM, 72 h, no LGT-E pre-treatment (control to Table 34)) was 88.8%, the viability at 0.67 µM (Lapatinib 0.67 μM, 72 h, pre-treated with […] LGT-E) was 75.9% and the viability at 0.67 µM (Lapatinib 0.67 μM, no chemosensitizing pre-treatment (Table 33)) was 91.8%. It also gave a viability at 2 µM (Lapatinib 2 μM, 72 h, no LGT-E pre-treatment (control to Table 34)) of 70.4%, a viability at 2 µM (Lapatinib 2 μM, 72 h, pre-treated with […] LGT-E) of 60.9% and a viability at 2 µM (Lapatinib 2 μM, no chemosensitizing pre-treatment (Table 33)) of 77.2%. For the same molecule, the viability at 6.7 µM (Lapatinib 6.7 μM, 72 h, no LGT-E pre-treatment (control to Table 34)) was 47.7%, the viability at 6.7 µM (Lapatinib 6.7 μM, 72 h, pre-treated with […] LGT-E) was 34.9% and the viability at 6.7 µM (Lapatinib 6.7 μM, no chemosensitizing pre-treatment (Table 33)) was 46.4%. For the same molecule, the viability at 20 µM (Lapatinib 20 μM, 72 h, no LGT-E pre-treatment (control to Table 34)) was 25.4%, the viability at 20 µM (Lapatinib 20 μM, 72 h, pre-treated with […] LGT-E) was 18.3% and the viability at 20 µM (Lapatinib 20 μM, no chemosensitizing pre-treatment (Table 33)) was 26.4%. The IC50 (read-out: IC50 of drug when cells pre-treated with Chemosensitizing Agent before drug treatment) was 3.92 µM and 2.28 µg/mL, the IC50 (read-out: IC50 of drug when cells treated with drug only) was 6.2 µM and 3.6 µg/mL and the “mean A at 565 nm” value (Lapatinib 0.001 μM, 72 h, no LGT-E pre-treatment (control to Table 34), background = 0.044) was 2.294. The “mean A at 565 nm” value (Lapatinib 0.001 μM, no chemosensitizing pre-treatment (Table 33), background = 0.047) was 2.298, the “mean A at 565 nm” value (Lapatinib 0.02 μM, 72 h, no LGT-E pre-treatment (control to Table 34), background = 0.044) was 2.276 and the “mean A at 565 nm” value (Lapatinib 0.02 μM, 72 h, pre-treated with […] LGT-E, background = 0.044) was 2.151. The “mean A at 565 nm” value (Lapatinib 0.02 μM, no chemosensitizing pre-treatment (Table 33), background = 0.047) was 2.357, the “mean A at 565 nm” value (Lapatinib 0.2 μM, 72 h, pre-treated with […] LGT-E, background = 0.044) was 1.999 and the “mean A at 565 nm” value (Lapatinib 0.2 μM, no chemosensitizing pre-treatment (Table 33), background = 0.047) was 2.234. For the same molecule, the “mean A at 565 nm” value (Lapatinib 0.67 μM, 72 h, no LGT-E pre-treatment (control to Table 34), background = 0.044) was 2.038, the “mean A at 565 nm” value (Lapatinib 2 μM, 72 h, no LGT-E pre-treatment (control to Table 34), background = 0.044) was 1.614 and the “mean A at 565 nm” value (Lapatinib 2 μM, 72 h, pre-treated with […] LGT-E, background = 0.044) was 1.348. For the same molecule, the “mean A at 565 nm” value (Lapatinib 2 μM, no chemosensitizing pre-treatment (Table 33), background = 0.047) was 1.775, the “mean A at 565 nm” value (Lapatinib 6.7 μM, 72 h, no LGT-E pre-treatment (control to Table 34), background = 0.044) was 1.095 and the “mean A at 565 nm” value (Lapatinib 6.7 μM, 72 h, pre-treated with […] LGT-E, background = 0.044) was 0.772. For the same molecule, the “mean A at 565 nm” value (Lapatinib 6.7 μM, no chemosensitizing pre-treatment (Table 33), background = 0.047) was 1.066, the “mean A at 565 nm” value (Lapatinib 20 μM, 72 h, no LGT-E pre-treatment (control to Table 34), background = 0.044) was 0.584 and the “mean A at 565 nm” value (Lapatinib 20 μM, 72 h, pre-treated with […] LGT-E, background = 0.044) was 0.406. The “mean A at 565 nm” value (Lapatinib 20 μM, no chemosensitizing pre-treatment (Table 33), background = 0.047) was 0.607.

From patent US10149876B2, “Tripterygium wilfordii extracts to overcome chemotherapy resistance” (WESTERN UNIVERSITY OF HEALTH SCIENCES, priority 2012, dated 2018)
